# Test results reported in publication PMC8550792, “Evolution of kinase polypharmacology across HSP90 drug discovery” (Cell Chemical Biology, 2021).
# Like-named read-outs stand apart in the source and are kept apart here.
# Experiments:
# Assay in all cases: biochemical
# Type in all cases: biochemical
# 382 unique human kinases [1] = target: T1, 382 unique human kinases (Homo sapiens, UniProt P10721, V559D); details: c-Kit (V559D), [ATP] 20 µM, compound 10 uM; for remaining activity at 10 µM: read-out: % Enzyme Activity (relative to DMSO controls)
# T1 construct: purchased Reaction Biology (HotSpot contract assay)
# 382 unique human kinases [2] = target: T2, 382 unique human kinases (Homo sapiens, UniProt P00519, E255K); details: ABL1 (E255K), [ATP] 5 µM, compound 10 uM; for remaining activity at 10 µM: read-out: % Enzyme Activity (relative to DMSO controls)
# T2 construct: purchased Reaction Biology (HotSpot contract assay)
# T2 sequence (P00519 whole entry E255K): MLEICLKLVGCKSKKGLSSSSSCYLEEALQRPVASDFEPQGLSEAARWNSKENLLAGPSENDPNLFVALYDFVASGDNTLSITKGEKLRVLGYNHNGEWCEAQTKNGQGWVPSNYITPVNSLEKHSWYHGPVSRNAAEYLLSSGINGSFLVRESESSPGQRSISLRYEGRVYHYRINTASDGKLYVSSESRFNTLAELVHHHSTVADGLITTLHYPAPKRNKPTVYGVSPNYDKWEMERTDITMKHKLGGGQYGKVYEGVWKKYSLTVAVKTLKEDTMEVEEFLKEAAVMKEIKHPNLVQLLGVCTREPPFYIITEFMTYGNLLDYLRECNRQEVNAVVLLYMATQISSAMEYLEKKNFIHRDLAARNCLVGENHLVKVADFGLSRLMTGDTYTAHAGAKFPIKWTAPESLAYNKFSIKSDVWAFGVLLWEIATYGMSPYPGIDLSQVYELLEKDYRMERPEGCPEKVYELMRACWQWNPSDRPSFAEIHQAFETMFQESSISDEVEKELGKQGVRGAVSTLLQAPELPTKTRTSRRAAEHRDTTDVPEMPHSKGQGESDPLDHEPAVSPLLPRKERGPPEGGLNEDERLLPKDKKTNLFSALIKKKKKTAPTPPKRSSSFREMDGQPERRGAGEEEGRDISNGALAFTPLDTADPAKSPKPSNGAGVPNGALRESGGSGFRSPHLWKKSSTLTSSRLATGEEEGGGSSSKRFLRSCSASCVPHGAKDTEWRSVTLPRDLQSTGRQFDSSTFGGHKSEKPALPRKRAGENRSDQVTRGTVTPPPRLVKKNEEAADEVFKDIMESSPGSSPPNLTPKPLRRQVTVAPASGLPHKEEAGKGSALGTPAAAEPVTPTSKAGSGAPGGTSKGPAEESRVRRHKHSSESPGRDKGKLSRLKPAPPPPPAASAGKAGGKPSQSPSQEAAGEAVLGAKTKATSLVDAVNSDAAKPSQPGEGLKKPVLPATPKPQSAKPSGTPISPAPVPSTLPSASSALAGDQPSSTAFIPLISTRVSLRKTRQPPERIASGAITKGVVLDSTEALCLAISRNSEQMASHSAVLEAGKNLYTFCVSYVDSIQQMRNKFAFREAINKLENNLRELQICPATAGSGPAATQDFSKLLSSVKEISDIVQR
# 382 unique human kinases [3] = target: T3, 382 unique human kinases (Homo sapiens, UniProt P51812, L608F); details: RSK2 (L608F), [ATP] 10 µM, compound 10 uM; for remaining activity at 10 µM: read-out: % Enzyme Activity (relative to DMSO controls)
# T3 construct: purchased Reaction Biology (HotSpot contract assay)
# 382 unique human kinases [4] = target: T4, 382 unique human kinases (Homo sapiens, UniProt P10721, V559A); details: c-Kit (V559A), [ATP] 100 µM, compound 10 uM; for remaining activity at 10 µM: read-out: % Enzyme Activity (relative to DMSO controls)
# T4 construct: purchased Reaction Biology (HotSpot contract assay)
# 382 unique human kinases [5] = target: T5, 382 unique human kinases (Homo sapiens, UniProt P49761); details: CLK3, [ATP] 30 µM, compound 10 uM; for remaining activity at 10 µM: read-out: % Enzyme Activity (relative to DMSO controls)
# T5 construct: purchased Reaction Biology (HotSpot contract assay)
# T5 sequence (P49761 whole entry): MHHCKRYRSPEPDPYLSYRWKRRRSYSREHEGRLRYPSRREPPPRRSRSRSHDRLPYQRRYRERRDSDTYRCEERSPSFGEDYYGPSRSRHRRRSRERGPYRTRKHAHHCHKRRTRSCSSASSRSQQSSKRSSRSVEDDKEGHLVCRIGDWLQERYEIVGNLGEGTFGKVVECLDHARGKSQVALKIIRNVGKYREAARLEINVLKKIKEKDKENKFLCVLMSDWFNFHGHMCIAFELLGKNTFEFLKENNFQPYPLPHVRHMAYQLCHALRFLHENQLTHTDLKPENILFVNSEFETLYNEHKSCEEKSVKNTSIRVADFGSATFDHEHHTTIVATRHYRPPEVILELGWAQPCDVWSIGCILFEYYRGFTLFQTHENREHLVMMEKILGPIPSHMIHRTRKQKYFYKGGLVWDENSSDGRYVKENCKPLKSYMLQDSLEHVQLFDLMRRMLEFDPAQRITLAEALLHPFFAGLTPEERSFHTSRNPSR
# 382 unique human kinases [6] = target: T6, 382 unique human kinases (Homo sapiens, UniProt P07947); details: YES/YES1, [ATP] 50 µM
# T6 construct: purchased Reaction Biology (HotSpot contract assay)
# 382 unique human kinases [7] = target: T7, 382 unique human kinases (Homo sapiens, UniProt P07948); details: LYN, [ATP] 15 µM, compound 10 uM; for remaining activity at 10 µM: read-out: % Enzyme Activity (relative to DMSO controls)
# T7 construct: purchased Reaction Biology (HotSpot contract assay)
# T7 sequence (P07948 whole entry): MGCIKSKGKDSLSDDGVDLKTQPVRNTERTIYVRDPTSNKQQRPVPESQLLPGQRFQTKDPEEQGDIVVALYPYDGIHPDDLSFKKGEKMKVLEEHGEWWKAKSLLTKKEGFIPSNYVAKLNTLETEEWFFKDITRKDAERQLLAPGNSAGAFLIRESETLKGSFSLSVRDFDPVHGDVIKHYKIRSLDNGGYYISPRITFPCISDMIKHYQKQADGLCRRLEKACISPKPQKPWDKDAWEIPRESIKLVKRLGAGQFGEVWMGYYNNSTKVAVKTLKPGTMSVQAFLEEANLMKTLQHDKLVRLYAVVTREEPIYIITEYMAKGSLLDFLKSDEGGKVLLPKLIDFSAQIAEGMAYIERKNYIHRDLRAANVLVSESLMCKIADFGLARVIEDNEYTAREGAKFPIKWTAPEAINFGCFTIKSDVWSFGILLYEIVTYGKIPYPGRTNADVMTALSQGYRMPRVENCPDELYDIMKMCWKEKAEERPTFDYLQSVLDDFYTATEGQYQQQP
# 382 unique human kinases [8] = target: T8, 382 unique human kinases (Homo sapiens, UniProt Q8TDC3); details: kinase BRSK1, compound 10 uM; for remaining activity at 10 µM: read-out: % Enzyme Activity (relative to DMSO controls)
# T8 construct: purchased Reaction Biology (HotSpot contract assay)
# T8 sequence (Q8TDC3 1-778): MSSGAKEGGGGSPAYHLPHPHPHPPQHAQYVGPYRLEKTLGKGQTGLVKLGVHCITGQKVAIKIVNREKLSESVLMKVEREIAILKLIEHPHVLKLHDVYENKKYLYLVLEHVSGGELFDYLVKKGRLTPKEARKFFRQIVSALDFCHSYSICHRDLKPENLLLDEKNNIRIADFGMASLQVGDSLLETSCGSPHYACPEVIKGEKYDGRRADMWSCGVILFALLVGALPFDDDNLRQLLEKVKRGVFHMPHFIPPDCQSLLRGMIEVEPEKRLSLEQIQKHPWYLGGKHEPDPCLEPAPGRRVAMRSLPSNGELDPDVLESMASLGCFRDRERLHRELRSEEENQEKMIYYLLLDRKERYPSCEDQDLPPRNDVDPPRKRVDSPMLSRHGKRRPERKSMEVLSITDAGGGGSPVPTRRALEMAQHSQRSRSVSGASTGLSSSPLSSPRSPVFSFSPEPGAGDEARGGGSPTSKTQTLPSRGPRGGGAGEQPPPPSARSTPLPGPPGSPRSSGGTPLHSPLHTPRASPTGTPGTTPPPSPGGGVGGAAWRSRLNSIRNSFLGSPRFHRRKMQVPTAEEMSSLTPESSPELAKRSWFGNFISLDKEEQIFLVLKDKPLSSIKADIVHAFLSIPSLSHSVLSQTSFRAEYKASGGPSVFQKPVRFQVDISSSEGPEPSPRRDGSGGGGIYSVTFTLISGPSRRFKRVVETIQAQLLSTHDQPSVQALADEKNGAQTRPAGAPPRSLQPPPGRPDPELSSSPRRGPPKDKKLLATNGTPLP
# 382 unique human kinases [9] = target: T9, 382 unique human kinases (Homo sapiens, UniProt O43293); details: kinase ZIPK/DAPK3, compound 10 uM; for remaining activity at 10 µM: read-out: % Enzyme Activity (relative to DMSO controls)
# T9 construct: purchased Reaction Biology (HotSpot contract assay)
# T9 sequence (O43293 whole entry): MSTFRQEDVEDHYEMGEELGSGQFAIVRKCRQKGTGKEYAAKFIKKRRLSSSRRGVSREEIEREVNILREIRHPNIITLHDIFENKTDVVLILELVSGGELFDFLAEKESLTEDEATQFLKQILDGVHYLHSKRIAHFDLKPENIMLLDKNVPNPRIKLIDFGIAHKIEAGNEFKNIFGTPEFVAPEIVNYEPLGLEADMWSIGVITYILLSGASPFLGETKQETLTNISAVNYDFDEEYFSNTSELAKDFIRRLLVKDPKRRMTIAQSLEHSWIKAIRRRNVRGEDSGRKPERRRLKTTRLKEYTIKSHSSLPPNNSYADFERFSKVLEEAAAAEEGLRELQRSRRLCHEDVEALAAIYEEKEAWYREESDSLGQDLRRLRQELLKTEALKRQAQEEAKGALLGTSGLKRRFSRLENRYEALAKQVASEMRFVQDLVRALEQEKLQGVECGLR
# 382 unique human kinases [10] = target: T10, 382 unique human kinases (Homo sapiens, UniProt Q13131); details: for remaining activity at 10 µM: read-out: % Enzyme Activity (relative to DMSO controls)
# T10 construct: purchased Reaction Biology (HotSpot contract assay)
# T10 sequence (Q13131 whole entry): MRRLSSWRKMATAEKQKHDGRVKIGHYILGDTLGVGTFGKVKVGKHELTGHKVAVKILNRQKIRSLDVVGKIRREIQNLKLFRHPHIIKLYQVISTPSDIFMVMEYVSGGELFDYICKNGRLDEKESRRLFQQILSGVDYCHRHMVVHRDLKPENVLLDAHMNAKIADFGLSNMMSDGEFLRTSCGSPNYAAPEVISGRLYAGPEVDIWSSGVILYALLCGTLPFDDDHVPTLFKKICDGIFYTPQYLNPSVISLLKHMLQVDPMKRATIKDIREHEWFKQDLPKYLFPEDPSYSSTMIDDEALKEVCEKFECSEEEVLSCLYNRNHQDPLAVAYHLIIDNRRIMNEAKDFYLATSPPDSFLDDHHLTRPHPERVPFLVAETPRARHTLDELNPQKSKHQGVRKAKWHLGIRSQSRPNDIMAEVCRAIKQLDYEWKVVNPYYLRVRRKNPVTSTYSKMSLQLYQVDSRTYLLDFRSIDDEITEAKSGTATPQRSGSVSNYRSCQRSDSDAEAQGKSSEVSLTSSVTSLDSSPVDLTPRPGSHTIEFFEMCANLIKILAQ
# 382 unique human kinases [11] = target: T11, 382 unique human kinases (Homo sapiens, UniProt Q9NY57); details: kinase STK32B/YANK2, compound 10 uM; for remaining activity at 10 µM: read-out: % Enzyme Activity (relative to DMSO controls)
# T11 construct: purchased Reaction Biology (HotSpot contract assay)
# T11 sequence (Q9NY57 whole entry): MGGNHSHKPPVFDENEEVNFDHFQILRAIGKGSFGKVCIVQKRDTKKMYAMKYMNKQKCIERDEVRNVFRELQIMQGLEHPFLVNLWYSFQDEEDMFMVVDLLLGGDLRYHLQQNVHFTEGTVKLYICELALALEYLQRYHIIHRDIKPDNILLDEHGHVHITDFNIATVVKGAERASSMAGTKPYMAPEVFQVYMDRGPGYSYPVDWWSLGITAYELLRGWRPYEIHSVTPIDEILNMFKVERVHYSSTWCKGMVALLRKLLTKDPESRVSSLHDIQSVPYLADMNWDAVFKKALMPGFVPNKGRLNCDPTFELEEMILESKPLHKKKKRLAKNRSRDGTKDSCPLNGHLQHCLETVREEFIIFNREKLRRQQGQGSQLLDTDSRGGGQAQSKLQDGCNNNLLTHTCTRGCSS
# 382 unique human kinases [12] = target: T12, 382 unique human kinases (Homo sapiens, UniProt Q04771, Q207D); details: ALK2 (Q207D), compound at 10 uM, duplicate values; for remaining activity at 10 µM: read-out: % Enzyme Activity (relative to DMSO controls)
# T12 construct: purchased Reaction Biology (HotSpot contract assay)
# T12 sequence (Q04771 21-509 Q207D): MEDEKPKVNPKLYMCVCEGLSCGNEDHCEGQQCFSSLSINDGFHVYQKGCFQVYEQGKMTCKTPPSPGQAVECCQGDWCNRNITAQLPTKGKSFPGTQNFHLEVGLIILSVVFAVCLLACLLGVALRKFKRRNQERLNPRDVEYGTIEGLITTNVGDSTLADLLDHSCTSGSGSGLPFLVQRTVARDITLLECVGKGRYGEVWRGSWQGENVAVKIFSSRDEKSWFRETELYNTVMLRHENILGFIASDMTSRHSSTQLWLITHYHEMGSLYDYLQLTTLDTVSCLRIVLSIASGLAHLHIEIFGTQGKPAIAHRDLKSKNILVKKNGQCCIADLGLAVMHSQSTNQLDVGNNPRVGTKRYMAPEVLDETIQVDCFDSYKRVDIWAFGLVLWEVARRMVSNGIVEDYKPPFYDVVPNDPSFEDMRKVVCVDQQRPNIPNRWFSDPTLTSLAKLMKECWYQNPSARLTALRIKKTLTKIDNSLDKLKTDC
# 382 unique human kinases [13] = target: T13, 382 unique human kinases (Homo sapiens, UniProt Q9P2K8); details: kinase EIF2AK4, compound 10 uM; for remaining activity at 10 µM: read-out: % Enzyme Activity (relative to DMSO controls)
# T13 construct: purchased Reaction Biology (HotSpot contract assay)
# 382 unique human kinases [14] = target: T14, 382 unique human kinases (Homo sapiens, UniProt Q9UKE5); details: TNIK, 10 uM; for remaining activity at 10 µM: read-out: % Enzyme Activity (relative to DMSO controls)
# T14 construct: purchased Reaction Biology (HotSpot contract assay)
# T14 sequence (Q9UKE5 whole entry): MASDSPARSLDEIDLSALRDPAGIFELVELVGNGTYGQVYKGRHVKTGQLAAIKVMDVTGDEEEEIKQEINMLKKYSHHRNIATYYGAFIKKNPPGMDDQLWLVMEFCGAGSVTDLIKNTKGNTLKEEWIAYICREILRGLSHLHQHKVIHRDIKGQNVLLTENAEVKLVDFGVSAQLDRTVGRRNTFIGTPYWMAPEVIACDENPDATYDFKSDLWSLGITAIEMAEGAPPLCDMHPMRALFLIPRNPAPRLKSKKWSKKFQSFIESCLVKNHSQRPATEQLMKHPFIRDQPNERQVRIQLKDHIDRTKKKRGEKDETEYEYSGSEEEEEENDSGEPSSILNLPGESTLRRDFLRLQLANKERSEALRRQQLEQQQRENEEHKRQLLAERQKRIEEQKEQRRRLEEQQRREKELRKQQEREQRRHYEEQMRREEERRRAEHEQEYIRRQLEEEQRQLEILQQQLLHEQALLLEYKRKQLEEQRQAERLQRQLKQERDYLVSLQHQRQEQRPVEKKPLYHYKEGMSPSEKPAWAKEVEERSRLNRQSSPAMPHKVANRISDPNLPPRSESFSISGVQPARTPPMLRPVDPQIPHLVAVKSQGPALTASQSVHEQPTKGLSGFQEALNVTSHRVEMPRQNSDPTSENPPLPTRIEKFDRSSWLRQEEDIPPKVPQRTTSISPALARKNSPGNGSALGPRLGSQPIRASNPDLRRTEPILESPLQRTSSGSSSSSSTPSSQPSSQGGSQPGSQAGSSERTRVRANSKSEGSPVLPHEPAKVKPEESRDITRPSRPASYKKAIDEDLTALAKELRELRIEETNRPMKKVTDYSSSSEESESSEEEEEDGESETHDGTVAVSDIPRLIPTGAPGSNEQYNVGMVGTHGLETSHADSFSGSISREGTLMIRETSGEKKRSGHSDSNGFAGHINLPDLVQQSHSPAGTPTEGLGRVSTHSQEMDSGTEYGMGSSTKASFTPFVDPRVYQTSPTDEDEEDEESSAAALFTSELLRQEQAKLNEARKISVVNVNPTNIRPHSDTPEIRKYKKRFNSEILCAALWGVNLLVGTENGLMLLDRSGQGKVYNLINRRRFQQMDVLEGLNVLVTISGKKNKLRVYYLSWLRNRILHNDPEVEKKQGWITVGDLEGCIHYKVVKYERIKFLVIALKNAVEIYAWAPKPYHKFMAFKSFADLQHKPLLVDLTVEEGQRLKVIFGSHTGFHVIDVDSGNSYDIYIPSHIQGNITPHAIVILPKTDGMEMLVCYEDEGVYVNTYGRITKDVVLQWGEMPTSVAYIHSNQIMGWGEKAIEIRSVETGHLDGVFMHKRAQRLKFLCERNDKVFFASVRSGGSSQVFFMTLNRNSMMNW
# 382 unique human kinases [15] = target: T15, 382 unique human kinases (Homo sapiens, UniProt P08581, T1173I); details: c-MET (T1173I), compound at 10 uM, duplicate values; for remaining activity at 10 µM: read-out: % Enzyme Activity (relative to DMSO controls)
# T15 construct: purchased Reaction Biology (HotSpot contract assay)
# [16] = compound 10 uM, read-out: % Enzyme Activity (relative to DMSO controls)
# [17] = kinase AMPK(A1/B1/G3), compound 10 uM
Structure (SMILES),remaining activity at 10 µM (382 unique human kinases [1]),remaining activity at 10 µM (382 unique human kinases [2]),remaining activity at 10 µM (382 unique human kinases [3]),remaining activity at 10 µM (382 unique human kinases [4]),remaining activity at 10 µM (382 unique human kinases [5]),remaining activity at 10 µM (382 unique human kinases [6]; [16]),remaining activity at 10 µM (382 unique human kinases [7]),remaining activity at 10 µM (382 unique human kinases [8]),remaining activity at 10 µM (382 unique human kinases [9]),"remaining activity at 10 µM (382 unique human kinases [10]; AMPK(A1/B1/G1), 10 uM)","remaining activity at 10 µM (382 unique human kinases [10]; AMPK(A1/B1/G2), 10 uM)","remaining activity at 10 µM (382 unique human kinases [10]; AMPK(A1/B2/G1), 10 uM)",remaining activity at 10 µM (382 unique human kinases [10]; [17]),remaining activity at 10 µM (382 unique human kinases [11]),remaining activity at 10 µM (382 unique human kinases [12]),remaining activity at 10 µM (382 unique human kinases [13]),remaining activity at 10 µM (382 unique human kinases [14]),remaining activity at 10 µM (382 unique human kinases [15]),also measured
CCNC(=O)c1noc(-c2cc(C(C)C)c(O)cc2O)c1-c1ccc(CN2CCOCC2)cc1 [Luminespib],69.6%,14.7%,108%,61.6%,46.6%,52.3%,39.2%,,,,,,,,,,,,% Enzyme Activity (relative to DMSO controls) (382 unique human kinases [1]): 69.57%; % Enzyme Activity (relative to DMSO controls) (382 unique human kinases [2]): 14.20%; % Enzyme Activity (relative to DMSO controls) (382 unique human kinases [3]): 105.75%; % Enzyme Activity (relative to DMSO controls) (382 unique human kinases [4]): 61.54%; % Enzyme Activity (relative to DMSO controls) (382 unique human kinases [5]): 45.99%; % Enzyme Activity (relative to DMSO controls) (382 unique human kinases [6]; compound 10 uM): 49.59%; % Enzyme Activity (relative to DMSO controls) (382 unique human kinases [7]): 38.08%
CC(C)c1cc(-c2n[nH]c(=O)n2-c2ccc3c(ccn3C)c2)c(O)cc1O [Ganetespib (STA9090)],,,,,,,,81.4%,89.8%,79.7%,73.2%,70.8%,86.1%,107%,154%,85.7%,62.6%,102%,
CCNC(=O)c1noc(-c2cc(C(C)C)c(O)cc2O)c1-c1ccc(CN2CCOCC2)cc1 [Luminespib (AUY-922)],,,,,,,,100%,98.6%,101%,107%,97.6%,119%,88.8%,106%,116%,96.6%,118%,"% Enzyme Activity (relative to DMSO controls) (382 unique human kinases [8]): 99.19%; % Enzyme Activity (relative to DMSO controls) (382 unique human kinases [9]): 97.96%; % Enzyme Activity (relative to DMSO controls) (382 unique human kinases [10]; AMPK(A1/B1/G1), 10 uM): 99.40%; % Enzyme Activity (relative to DMSO controls) (382 unique human kinases [10]; AMPK(A1/B1/G2), 10 uM): 104.49%; % Enzyme Activity (relative to DMSO controls) (382 unique human kinases [10]; AMPK(A1/B2/G1), 10 uM): 96.58%; % Enzyme Activity (relative to DMSO controls) (382 unique human kinases [10]; [17]): 118.21%; % Enzyme Activity (relative to DMSO controls) (382 unique human kinases [11]): 88.50%; % Enzyme Activity (relative to DMSO controls) (382 unique human kinases [12]): 101.59%; % Enzyme Activity (relative to DMSO controls) (382 unique human kinases [13]): 112.88%; % Enzyme Activity (relative to DMSO controls) (382 unique human kinases [14]): 95.71%; % Enzyme Activity (relative to DMSO controls) (382 unique human kinases [15]): 114.35%"
CC(C)c1cc(-c2n[nH]c(=O)n2-c2ccc3c(ccn3C)c2)c(O)cc1O [Ganetespib],40.7%,4.77%,52.5%,43.9%,39%,12.8%,21.7%,,,,,,,,,,,,"remaining activity at 1 µM (382 unique human kinases [6]; compound 1 uM, read-out: % Enzyme Activity (relative to DMSO controls)): 45.5%"
